According to patent US6495604B1, “Cycloalkene derivatives, process for producing the same, and use” (Takeda Chemical Industries, Ltd., priority 1998, dated 2002):

Each compound was assayed on NO production by RAW264.7 cell (assay: NO production-inhibiting effect in RAW264.7 cells (nitrite ion by DAN fluorescence)). Conditions: Mus musculus, RAW264.7, RAW264.7; LPS 5 ng/ml + interferon gamma 1 U/ml; nitrite ion in culture supernatant after overnight incubation.
Assay type: cell-based, mouse
Description: Mouse macrophage cell line RAW264.7 was used as an iNOS-inducible cell and a test compound was examined for its % inhibition of NO production. The test compound was dissolved at 10 mM in N,N-dimethylformamide and diluted with an RPMI-1640 medium at the concentration of 0.1 mM. The concentration was further adjusted using the medium so that a final concentration ranging from 10 μM to 10 nM could be obtained by a 10-fold serial dilution and the test compound was added to a culture medium. On the day before the experiment, the cell was adjusted at 5×10^5/ml in an RPMI-1640 medium supplemented with 10% inactivated fetal calf serum and inoculated to a 96-well microplate at 1×10^5 cells/0.2 ml per well. After incubating at 37° C. under an atmosphere of 5% CO2/95% air overnight, the test compound adjusted as described above was added and then LPS and interferon gamma were added at the final concentrations of 5 ng/ml and 1 U/ml, respectively. After further incubating overnight, culture supernatants were examined for the concentration of nitrite ion (stable metabolite of NO) which was used as an index for the NO production. The nitrite ion concentration was determined by adding 25 μl of 20 μg/ml of 2,3-diaminonaphthalene (DAN) to 50 μl of the culture supernatant, followed by incubating at room temperature for 10 minutes, followed by adding 25 μl of 0.5 N NaOH, followed by determining a fluorescence at 450 nm (excitation wavelength: 365 nm). An IC50 represents the concentration of the test compound which inhibits 50% of the NO production.

| SMILES | IC50 [µM] |
| --- | --- |
| CCOC(=O)C1=CCCCC1S(=O)(=O)N(C)c1ccc(Cl)cc1F (stereo not drawn) [Compound 2, ethyl 6-[N-(4-chloro-2-fluorophenyl)-N-methylsulfamoyl]-1-cyclohexene-1-carboxylate] | 1.1 |
| CCOC(=O)C1=CCCCC1S(=O)(=O)Nc1c(C(C)C)cccc1C(C)C (stereo not drawn) [Compound 4, ethyl 6-[N-(2,6-diisopropylphenyl)sulfamoyl]-1-cyclohexene-1-carboxylate] | 2.6 |
| CCOC(=O)C1=CCCCC1S(=O)(=O)Nc1ccccc1 (stereo not drawn) [Compound 6, ethyl 6-(N-phenylsulfamoyl)-1-cyclohexene-1-carboxylate] | 0.59 |
| CCOC(=O)C1=C(S(=O)(=O)Nc2ccccc2)CCCC1 [Compound 7, ethyl 2-(N-phenylsulfamoyl)-1-cyclohexene-1-carboxylate] | 4 |
| CCOC(=O)C1=C(S(=O)(=O)Nc2ccc(OC)cc2)CCCC1 [Compound 8, ethyl 2-[N-(4-methoxyphenyl)sulfamoyl]-1-cyclohexene-1-carboxylate] | 4.8 |
| CCOC(=O)C1=C(S(=O)(=O)Nc2ccc(Cl)cc2F)CCCC1 [Compound 9, ethyl 2-[N-(4-chloro-2-fluorophenyl)sulfamoyl]-1-cyclohexene-1-carboxylate] | 4.1 |
| CCOC(=O)C1=CCCCC1S(=O)(=O)Nc1ccccc1F (stereo not drawn) [Compound 10, ethyl 6-[N-(2-fluorophenyl)sulfamoyl]-1-cyclohexene-1-carboxylate] | 0.058 |
| CCOC(=O)C1=CCCCC1S(=O)(=O)Nc1ccc(F)cc1 (stereo not drawn) [Compound 12, ethyl 6-[N-(4-fluorophenyl)sulfamoyl)-1-cyclohexene-1-carboxylate] | 0.18 |
| CCOC(=O)C1=CCCCC1S(=O)(=O)Nc1c(F)cccc1F (stereo not drawn) [Compound 13, ethyl 6-[N-(2,6-difluorophenyl)sulfamoyl]-1-cyclohexene-1-carboxylate] | 0.46 |
| CCOC(=O)C1=CCCCC1S(=O)(=O)Nc1cccc(F)c1F (stereo not drawn) [Compound 14, ethyl 6-[N-(2,3-difluorophenyl)sulfamoyl]-1-cyclohexene-1-carboxylate] | 0.59 |
| CCOC(=O)C1=CCCCC1S(=O)(=O)Nc1cc(F)ccc1F (stereo not drawn) [Compound 15, ethyl 6-[N-(2,5-difluorophenyl)sulfamoyl]-1-cyclohexene-1-carboxylate] | 0.28 |
| CCOC(=O)C1=CCCCC1S(=O)(=O)Nc1ccc(F)c(F)c1 (stereo not drawn) [Compound 16, ethyl 6-[N-(3,4-difluorophenyl)sulfamoyl]-1-cyclohexene-1-carboxylate] | 0.18 |
| CCOC(=O)C1=CCCCC1S(=O)(=O)Nc1cc(F)cc(F)c1 (stereo not drawn) [Compound 17, ethyl 6-[N-(3,5-difluorophenyl)sulfamoyl]-1-cyclohexene-1-carboxylate] | 2.6 |
| CCOC(=O)C1=C(S(=O)(=O)Nc2ccc(F)cc2)CCCC1 [Compound 18, ethyl 2-[N-(4-fluorophenyl)sulfamoyl)-1-cyclohexene-1-carboxylate] | 4.4 |
| CCOC(=O)C1=CCCCC1S(=O)(=O)Nc1ccccc1C(=O)OCC (stereo not drawn) [Compound 21, ethyl 6-[N-(2-ethoxycarbonylphenyl)sulfamoyl]-1-cyclohexene-1-carboxylate] | 2.4 |
| COC(=O)C1=CCCCC1S(=O)(=O)Nc1ccc(F)cc1F (stereo not drawn) [Compound 22, methyl 6-[N-(2,4-difluorophenyl)sulfamoyl]-1-cyclohexene-1-carboxylate] | 0.18 |
| CCCOC(=O)C1=CCCCC1S(=O)(=O)Nc1ccc(F)cc1F (stereo not drawn) [Compound 23, propyl 6-[N-(2,4-difluorophenyl)sulfamoyl]-1-cyclohexene-1-carboxylate] | 0.027 |
| COC(=O)C1=CCCCC1S(=O)(=O)Nc1ccc(Cl)cc1F (stereo not drawn) [Compound 24, methyl 6-[N-(4-chloro-2-fluorophenyl)sulfamoyl]-1-cyclohexene-1-carboxylate] | 0.78 |
| CC(C)OC(=O)C1=CCCCC1S(=O)(=O)Nc1ccc(F)cc1F (stereo not drawn) [Compound 25, isopropyl 6-[N-(2,4-difluorophenyl)sulfamoyl]-1-cyclohexene-1-carboxylate] | 0.32 |

| SMILES | IC50 [µM] |
| --- | --- |
| CCOC(=O)C1=CCCCC1S(=O)(=O)Nc1ccccc1C(=O)OC (stereo not drawn) [Compound 26, ethyl 6-[N-(2-methoxycarbonylphenyl)sulfamoyl]-1-cyclohexene-1-carboxylate] | 3.3 |
| CCOC(=O)C1=CCCCC1S(=O)(=O)Nc1ccc(C)cc1F (stereo not drawn) [Compound 27, ethyl 6-[N-(2-fluoro-4-methylphenyl)sulfamoyl]-1-cyclohexene-1-carboxylate] | 0.25 |
| CCOC(=O)C1=CCCCC1S(=O)(=O)Nc1ccccc1Cl (stereo not drawn) [Compound 28, ethyl 6-[N-(2-chlorophenyl)sulfamoyl]-1-cyclohexene-1-carboxylate] | 0.029 |
| CCOC(=O)C1=CCCCC1S(=O)(=O)Nc1ccc(F)cc1Cl (stereo not drawn) [Compound 29, ethyl 6-[N-(2-chloro-4-fluorophenyl)sulfamoyl]-1-cyclohexene-1-carboxylate] | 0.0093 |
| CCOC(=O)C1=CCCCC1S(=O)(=O)Nc1ccc(F)c(F)c1F (stereo not drawn) [Compound 31, ethyl 6-[N-(2,3,4-trifluorophenyl)sulfamoyl]-1-cyclohexene-1-carboxylate] | 0.23 |
| CC(C)COC(=O)C1=CCCCC1S(=O)(=O)Nc1ccc(F)cc1F (stereo not drawn) [Compound 32, isobutyl 6-[N-(2,4-difluorophenyl)sulfamoyl]-1-cyclohexene-1-carboxylate] | 0.23 |
| CCCCOC(=O)C1=CCCCC1S(=O)(=O)Nc1ccc(F)cc1F (stereo not drawn) [Compound 33, butyl 6-[N-(2,4-difluorophenyl)sulfamoyl]-1-cyclohexene-1-carboxylate] | 0.26 |
| CCOC(=O)C1=CCCCC1S(=O)(=O)Nc1ccc(Br)cc1F (stereo not drawn) [Compound 34, ethyl 6-[N-(4-bromo-2-fluorophenyl)sulfamoyl]-1-cyclohexene-1-carboxylate] | 0.35 |
| CCOC(=O)C1=CCCCC1S(=O)(=O)Nc1ccc(Cl)cc1Cl (stereo not drawn) [Compound 35, ethyl 6-[N-(2,4-dichlorophenyl)sulfamoyl]-1-cyclohexene-1-carboxylate] | 0.082 |
| CCOC(=O)C1=CCCCC1S(=O)(=O)Nc1cccc(Cl)c1Cl (stereo not drawn) [Compound 38, ethyl 6-[N-(2,3-dichlorophenyl)sulfamoyl]-1-cyclohexene-1-carboxylate] | 0.041 |
| CCOC(=O)C1=CCCCC1S(=O)(=O)Nc1ccc(-n2nccn2)cc1 (stereo not drawn) [Compound 40, ethyl 6-[N-[4-(2H-1,2,3-triazol-2-yl)phenyl)sulfamoyl]-1-cyclohexene-1-carboxylate] | 2.5 |
| CCOC(=O)C1=CCCCC1S(=O)(=O)Nc1cc(Cl)ccc1Cl (stereo not drawn) [Compound 41, ethyl 6-[N-(2,5-dichlorophenyl)sulfamoyl]-1-cyclohexene-1-carboxylate] | 0.24 |
| CCOC(=O)C1=CCCCC1S(=O)(=O)Nc1ccccc1OC(F)(F)F (stereo not drawn) [Compound 42, ethyl 6-[N-(2-trifluoromethoxyphenyl)sulfamoyl]-1-cyclohexene-1-carboxylate] | 1.1 |
| CCOC(=O)C1=CCCCC1S(=O)(=O)Nc1cc(F)c(F)cc1F (stereo not drawn) [Compound 43, ethyl 6-[N-(2,4,5-trifluorophenyl)sulfamoyl]-1-cyclohexene-1-carboxylate] | 0.073 |
| CCOC(=O)C1=CCCCC1S(=O)(=O)Nc1ccc(-n2ncnn2)cc1 (stereo not drawn) [Compound 44, ethyl 6-[N-[4-(2H-tetrazol-2-yl)phenyl)sulfamoyl]-1-cyclohexene-1-carboxylate] | 3.7 |
| CCOC(=O)C1=CCCCC1S(=O)(=O)Nc1ccc(C)cc1Cl (stereo not drawn) [Compound 45, ethyl 6-[N-(2-chloro-4-methylphenyl)sulfamoyl]-1-cyclohexene-1-carboxylate] | 0.027 |
| CCOC(=O)C1=CCCCC1S(=O)(=O)Nc1ccc(F)cc1C (stereo not drawn) [Compound 46, ethyl 6-[N-(4-fluoro-2-methylphenyl)sulfamoyl]-1-cyclohexene-1-carboxylate] | 0.054 |
| CCOC(=O)C1=CCCCC1S(=O)(=O)Nc1c(Cl)cccc1Cl (stereo not drawn) [Compound 47, ethyl 6-[N-(2,6-dichlorophenyl)sulfamoyl]-1-cyclohexene-1-carboxylate] | 0.048 |

Same assay, conditions: Mus musculus; RAW264.7; LPS 5 ng/ml + interferon gamma 1 U/ml; nitrite ion in culture supernatant after overnight incubation

| SMILES | IC50 [µM] |
| --- | --- |
| CCOC(=O)C1=CCCCC1S(=O)(=O)Nc1ccc([N+](=O)[O-])cc1 (stereo not drawn) [Compound 5, ethyl 6-[N-(4-nitrophenyl)sulfamoyl]-1-cyclohexene-1-carboxylate] | 3.7 |
| CCOC(=O)C1=CCCCC1S(=O)(=O)Nc1ccc(Cl)cc1 (stereo not drawn) [Compound 30, ethyl 6-[N-(4-chlorophenyl)sulfamoyl]-1-cyclohexene-1-carboxylate] | 0.54 |
| CCOC(=O)C1=CCCCC1S(=O)(=O)Nc1cccc(Cl)c1 (stereo not drawn) [Compound 37, ethyl 6-[N-(3-chlorophenyl)sulfamoyl]-1-cyclohexene-1carboxylate] | 0.13 |
| CCOC(=O)C1=CCCCC1S(=O)(=O)Nc1ccccc1CC (stereo not drawn) [Compound 39, ethyl 6-[N-(2-ethylphenyl)sulfamoyl]-1-cyclohexene-1-carboxylate] | 0.32 |

Same assay, conditions: RAW264.7; LPS 5 ng/ml + interferon gamma 1 U/ml; nitrite ion in culture supernatant after overnight incubation

| SMILES | IC50 [µM] |
| --- | --- |
| CCOC(=O)C1=CCCCC1S(=O)(=O)Nc1ccc(F)cc1F (stereo not drawn) [Compound 19, 1-ethyl 6-[N-(2,4-difluorophenyl)sulfamoyl]-1-cyclohexene-1-carboxylate] | 2 |
